What was measured:
[1] = Stability in human blood plasma; settings: 10 μM in pooled human blood plasma, incubated 4 hours at 37° C.
Protocol: To assess the blood plasma stability of the drug candidates, we used pooled human blood plasma taken from ten healthy donors. The initial solution (10 Mm in DMSO) was diluted with pooled blood plasma to 10 μM (test solution). The test solution had been incubated for 4 hours in a dry block heater at 37° C. We determined peak areas of the compounds corresponding to the start of the test (before incubating) and the end of the test (after incubating in a dry block heater at 37° C.) by HPLC using Agilent1200 chromatograph (Agilent, USA) with preliminary protein precipitation with acetonitrile. We used gradient elution (1 mL/min flow rate). We determined amount of substance in the sample in % after incubation.
(§7) We evaluated the stability of the compounds.

[2] = Chemical stability in artificial gastric fluid (SGF without enzymes); settings: 10 μM in SGF without enzymes, pH=1.4, 37° C.
Protocol: The initial candidate solution (10 mM in DMSO) was diluted with the working solution of SGF to the concentration of 10 μm (test solution). The test solution was incubated in a dry block heater at 37° C. We determined peak areas of the compounds corresponding to the start of the test (before incubating) and the end of the test (after incubating in a dry block heater at 37° C.) by HPLC using Agilent1200 chromatograph (Agilent, USA). We used gradient elution (1 mL/min flow rate). We determined amount of substance in the sample in % after incubation.
as §7

[3] = tested on: HepG2 cells (hepatocellular carcinoma); assay: General cytotoxicity on HepG2 cells (CC50; therapeutic index CC50 HepG2/IC50 Mino); type: cell-based; settings: Table 10; therapeutic index
Protocol: (§1) The CC50 values were determined in the test for General cytotoxicity on HepG2 cells (hepatocellular carcinoma, ATCC® HB-8065™). 2*10^4 cells (in 50 μl) per well were seeded in 96-well plates (Corning, #3599) in DMEM medium (PanEco, #S420p), after 24 h of incubation 150 μl of candidate compounds were added to each well in the range of final concentrations from 200 μM to 4 μM and the plate was incubated in a total volume of 200 μl for 72 hours. Viability of the cells was assessed using Alamar Blue dye (Invitrogen, #DAL 1100). CC50 was determined similarly (table 10).
(§2) The relationship between toxic (CC50) and a therapeutic (IC50) effects of the dose is the therapeutic index, which can be expressed as the ratio between CC50 (HepG2) (general cytotoxicity of the candidate) and IC50 (Mino) (antiproliferative activity on the target cells): […]

[4] = as above; type: cell-based; settings: human, HepG2 cells (hepatocellular carcinoma); Table 10; 72 hours, Alamar Blue; average of several tests
Protocol: as §1, §2

[5] = tested on: Mino (mantle cell lymphoma); assay: Antiproliferative activity, Mino cells (Alamar Blue); type: cell-based; settings: Homo sapiens, Table 10, 72 h, average of several tests
Protocol: (§3) Antiproliferative activity of BTK inhibitors was measured in cell-based bioassay on B-cells cultures: Mino (mantle cell lymphoma, ATCC® CRL-3000™), Z-138 (mantle cell lymphoma, ATCC® CRL-3001™) and DOHH2 (follicular lymphoma, Creative Bioarray CSC-C0219) using cell viability reagent Alamar Blue (Invitrogen, #DAL 1100). Cells were cultured in 10% FB S-supplemented (HyClone, #SH3008803/Gibco, #16140-071) RPMI-1640 (PanEco, #S330p) for at least 1 passage after thawing, washed with PBS and passaged in 96-well culture plates (Corning, #3599) with growth medium with 10% FBS (HyClone, #SH3008803/Gibco, #16140-071) and antibiotic (50 μg/ml of gentamicin (Biolot, #1.3.16))≈3*10^4 cells in 50 μl of medium per well.
(§4) The compounds were dissolved in DMSO and diluted with the assay medium to final concentrations ranging from […]. 150 μl of each diluted compound were then added to each well (final concentration of DMSO was less than 1%) and incubated at 37° C. in an incubator under 5% of CO2 for 72 h. After incubation, 20 μl of Alamar Blue reagent (Invitrogen, #DAL1100) were added to each well. The plates were shaked on an orbital shaker (Biosan, Latvia) and then incubated for 14-16 hours at 37° C. in the incubator.
(§5) The number of living cells were estimated, measuring the fluorescence signal at the excitation wavelength (REx) of 540 nm and the emission wavelength (λEm) of 590 nm on a microplate reader (Tecan Infinite M200Pro, Switzerland).
(§6) For each compound, IC50 was calculated using Magellan 7.2 software (Tecan, Switzerland) approximating experimental points by four-parameter logistic model with the optimization by Levenberg-Marquardt.

[6] = tested on: Z-138 (mantle cell lymphoma); assay: Antiproliferative activity, Z-138 cells (Alamar Blue); type: cell-based; settings: Homo sapiens, Table 10, 72 h, average of several tests
Protocol: as §3, §4, §5, §6

Row | Amount of substance in the sample, % (stability in human blood plasma) [1] [%] | Amount of substance in the sample in % (chemical stability) [2] [%] | SMILES | also measured
1 | 85.2 |  | C=CC(=O)N1CCC[C@@H](n2nc(-c3ccc(C(=O)Nc4cc(C(F)(F)CCC)ccn4)cc3)c3cncc(Cl)c32)C1 [BCD-BTK -252, (R)-4-(1-(1-acryloylpiperidin-3-yl)-7-chloro-1H-pyrazolo[4,3-c]pyridin-3-yl)-N-(4-(1,1-difluorobutyl)pyridin-2-yl)benzamide] | 
2 | 87.6 |  | C=CC(=O)N1CCC[C@@H](n2nc(-c3cnc(-n4ccc(=O)c(C#N)c4)nc3)c3cncc(Cl)c32)C1 [BCD-BTK-206, (R)-1-(5-(1-(1-acryloylpiperidin-3-yl)-7-chloro-1H-pyrazolo[4,3-c]pyridin-3-yl)pyrimidin-2-yl)-4-oxo-1,4-dihydropyridine-3-carbonitrile] | 
3 | 91.4 |  | C=CC(=O)N1CCC[C@@H](n2nc(-c3ccc(-n4ccc(=O)c(C#N)c4)cc3)c3cncc(Cl)c32)C1 [BCD-BTK-208, (R)-1-(4-(1-(1-acryloylpiperidin-3-yl)-7-chloro-1H-pyrazolo[4,3-c]pyridin-3-yl)phenyl)-4-oxo-1,4-dihydropyridine-3-carbonitrile] | CC50 (HepG2)/IC50 (Mino) [3]: 5.21; CC50 at 72 h [4]: 112 µM; IC50 [5]: 21.5 µM; IC50 [6]: 32.2 µM
4 | 82.6 |  | C=CC(=O)N1CCC[C@@H](n2nc(-c3cnc(-n4ccc(=O)c(C(N)=O)c4)nc3)c3cncc(Cl)c32)C1 [BCD-BTK-207, (R)-1-(5-(1-(1-acryloylpiperidin-3-yl)-7-chloro-1H-pyrazolo[4,3-c]pyridin-3-yl)pyrimidin-2-yl)-4-oxo-1,4-dihydropyridine-3-carboxamide] | 
5 | 97.8 |  | C=CC(=O)N1CCC[C@@H](n2nc(-c3ccc(Oc4ccncc4)cc3)c3cncc(Cl)c32)C1 [BCD-BTK -125, (R)-1-(1-acryloylpiperidin-3-yl)-7-chloro-3-(4-(pyridin-4-yloxy)phenyl)-1H-pyrazolo[4,3-c]pyridine] | 
6 | 85.7 |  | C=CC(=O)N1CCC[C@@H](n2nc(-c3cnc(C(=O)Nc4cc(C(F)(F)CC)ccn4)nc3)c3cncc(Cl)c32)C1 [BCD-BTK -293, (R)-5-(1-(1-acryloylpiperidin-3-yl)-7-chloro-1H-pyrazolo[4,3-c]pyridin-3-yl)-N-(4-(1,1-difluoropropyl)pyridin-2-yl)pyrimidine-2-carboxamide] | 
7 | 93.3 |  | C=CC(=O)N1CCC[C@@H](n2nc(-c3cnc(C(=O)Nc4cc(C(F)(F)CCC)ccn4)nc3)c3cncc(Cl)c32)C1 [BCD-BTK -292, (R)-5-(1-(1-acryloylpiperidin-3-yl)-7-chloro-1H-pyrazolo[4,3-c]pyridin-3-yl)-N-(4-(1,1-difluorobutyl)pyridin-2-yl)pyrimidine-2-carboxamide] | 

Second part, the molecule before the results:

Row | SMILES | Amount of substance in the sample, % (stability in human blood plasma) [1] [%] | Amount of substance in the sample in % (chemical stability) [2] [%] | also measured
8 | C=CC(=O)N1CCC[C@@H](n2nc(-c3ccc(Oc4ccncc4)cc3)c3c(N)ncc(C#N)c32)C1 [BCD-BTK -134, (R)-1-(1-acryloylpiperidin-3-yl)-4-amino-3-(4-(pyridin-4-yloxy)phenyl)-1H-pyrazolo[4,3-c]pyridin-7-carbonitrile] | 89.7 |  | 
9 | C=CC(=O)N1CCC[C@@H](n2nc(-c3ccc(C(=O)Nc4cc(C(F)(F)CCC)ccn4)cc3)c3cncc(F)c32)C1 [BCD-BTK -247, (R)-4-(1-(1-acryloylpiperidin-3-yl)-7-fluoro-1H-pyrazolo[4,3-c]pyridin-3-yl)-N-(4-(1,1-difluorobutyl)pyridin-2-yl)benzamide] | 87.3 | 100 | 
10 | C=CC(=O)N1CCC[C@@H](n2nc(-c3ccc(C(=O)Nc4ccc(F)cn4)cc3)c3c(N)ncc(Cl)c32)C1 [BCD-BTK -237, 4-{4-amino-7-chloro-1-[(3R)-1-(prop-2-enoyl)piperidin-3-yl]-1H-pyrazolo[4,3-c]pyridin-3-yl}-N-(5-fluoropyridin-2-yl)benzamide] | 95.5 | 100 | 
11 | CC#CC(=O)N1CCC[C@H](Cn2nc(-c3ccc(C(=O)Nc4ccccn4)cc3)c3cncc(Cl)c32)C1 [BCD-BTK-283, (S)-4-(1-((1-(but-2-ynoyl)piperidin-3-yl)methyl)-7-chloro-1H-pyrazolo[4,3-c]pyridin-3-yl)-N-(pyridin-2-yl)benzamide] | 97.4 | 100 | 
12 | CC#CC(=O)N1CCC[C@@H](Cn2nc(-c3ccc(C(=O)Nc4ccccn4)cc3)c3cncc(Cl)c32)C1 [BCD-BTK-278, (R)-4-(1-((1-(but-2-ynoyl)piperidin-3-yl)methyl)-7-chloro-1H-pyrazolo[4,3-c]pyridin-3-yl)-N-(pyridin-2-yl)benzamide] | 96.2 | 100 | 
13 | C=CC(=O)N1CCC[C@@H](n2nc(-c3ccc(C(=O)Nc4cc(C(F)(F)F)ccn4)cc3)c3c(N)ncc(Cl)c32)C1 [BCD-BTK -251, (R)-4-(1-(1-acryloylpiperidin-3-yl)-4-amino-7-chloro-1H-pyrazolo[4,3-c]pyridin-3-yl)-N-(4-(trifluoromethyl)pyridin-2-yl)benzamide] | 89.2 |  | 
14 | CC#CC(=O)N1CC(Cn2nc(-c3ccc(C(=O)Nc4ccccn4)cc3)c3cncc(Cl)c32)C1 [BCD-BTK-267, 4-(1-((1-(but-2-ynoyl)azetidin-3-yl)methyl)-7-chloro-1H-pyrazolo[4,3-c]pyridin-3-yl)-N-(pyridin-2-yl)benzamide] | 100.0 | 100 | 
15 | C=CC(=O)N1CCC[C@@H](n2nc(-c3ccc(C(=O)Nc4cccc(F)n4)cc3)c3c(N)ncc(Cl)c32)C1 [BCD-BTK -250, (R)-4-(1-(1-acryloylpiperidin-3-yl)-4-amino-7-chloro-1H-pyrazolo[4,3-c]pyridin-3-yl)-N-(6-fluoropyridin-2-yl)benzamide] | 84.5 |  | 
16 | CC#CC(=O)N1CCC[C@@H]1Cn1nc(-c2ccc(C(=O)Nc3ccccn3)cc2)c2cncc(Cl)c21 [BCD-BTK-269, (R)-4-(1-((1-(but-2-ynoyl)pyrrolidin-2-yl)methyl)-7-chloro-1H-pyrazolo[4,3-c]pyridin-3-yl)-N-(pyridin-2-yl)benzamide] | 95.4 | 100 | 
17 | CC#CC(=O)N1CCC[C@@H](n2nc(-c3ccc(C(=O)Nc4ccccn4)cc3)c3c(N)ncc(Cl)c32)C1 [BCD-BTK -295, (R)-4-(4-amino-1-(1-(but-2-ynoyl)piperidin-3-yl)-7-chloro-1H-pyrazolo[4,3-c]pyridin-3-yl)-N-(pyridin-2-yl)benzamide] | 100.0 |  | 
18 | C=CC(=O)N1CCC[C@@H](n2nc(-c3ccc(Oc4ccncc4)cc3)c3c(N)ncc(Cl)c32)C1 [BCD-BTK -139, (R)-1-(1-acryloylpiperidin-3-yl)-7-chloro-3-(4-(pyridin-4-yloxy)phenyl)-1H-pyrazolo[4,3-c]pyridin-4-amine] | 87.1 |  | 
19 | C=CC(=O)N1CCC[C@@H](n2nc(-c3ccc(C(=O)Nc4cc(C(F)(F)CCC)ccn4)cc3)c3c(N)ncc(Cl)c32)C1 [BCD-BTK -254, (R)-4-(1-(1-acryloylpiperidin-3-yl)-4-amino-7-chloro-1H-pyrazolo[4,3-c]pyridin-3-yl)-N-(4-(1,1-difluorobutyl)pyridin-2-yl)benzamide] | 93.0 |  | 
